Literature values in patent US20170176475A1, “NOVEL METHODS AND KITS FOR DETECTING A RIFAMYCIN, OR DERIVATIVE OR ANALOGUE THEREOF” (DREXEL UNIVERSITY, priority 2014, published 2017).

In the case of `CO[C@H]1/C=C/O[C@@]2(C)Oc3c(C)c(O)c4c(O)c(c(/C=N/N5CCN(C)CC5)c(O)c4c3C2=O)NC(=O)/C(C)=C\C=C\[C@H](C)[C@H](O)[C@@H](C)[C@@H](O)[C@@H](C)[C@H](OC(C)=O)[C@@H]1C` [rifampicin, (7S,9E,11S,12R,13S,14R,15R,16R,17S, 18S,19E,21Z)-2,15,17,27,29-pentahydroxy-11-methoxy-3,7,12,14,16,18,22-heptamethyl-26-{(E)-[(4-methylpiperazin-1-yl)imino]methyl}-6,23-dioxo-8,30-dioxa-24-azatetracyclo [23.3.1.1^4,7.0^5,28]triaconta-1(28),2,4,9,19,21,25(29),26-octaen-13-yl acetate], the “time by which nearly all the drug in the bile is present in the deacetylated form” value (bile, normal metabolizing patients) is given as no more than 6 h and the “time to peak plasma drug concentrations after intake” value (orally administered) is given as “two to four”.
